The supplement of paper PMC10307832

Experiments:
Experiment in all cases: relative viability (nuclei count vs DMSO), 5 days (fraction); higher = more cells survive
[1] = compound: COc1cc2c(Oc3ccc4[nH]c(C)cc4c3F)ncnc2cc1OCCCN1CCCC1 [Cediranib] + Cc1nc(Nc2ncc(C(=O)Nc3c(C)cccc3Cl)s2)cc(N2CCN(CCO)CC2)n1 [Dasatinib] (partner 0.075 µM)
Procedure, shortened: (§1)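 Medians of duplicate plates are given as relative viability. That measure is the nuclei count in treated wells divided by the count in vehicle wells. Counts were taken on 4× images of lung cancer cell lines in 1536-well plates, 5 days after pin-tool dosing the day after seeding with one drug alone or a fixed anchor-drug dose plus five library-drug doses (not always all listed) in √10 steps.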

[2] = compound: Nc1ncn([C@H]2C[C@H](O)[C@@H](CO)O2)c(=O)n1 [Decitabine] + Nc1nc2[nH]cc(CCc3ccc(C(=O)N[C@@H](CCC(=O)O)C(=O)O)cc3)c2c(=O)[nH]1 [Pemetrexed] (partner 0.2 µM)
Procedure, shortened: as §1

[3] = compound: Nc1ncn([C@H]2C[C@H](O)[C@@H](CO)O2)c(=O)n1 [Decitabine] + CCNC(=O)c1noc(-c2cc(C(C)C)c(O)cc2O)c1-c1ccc(CN2CCOCC2)cc1 [Luminespib] (partner 0.01 µM)
Procedure, shortened: as §1

[4] = compound: COc1cc2c(Oc3ccc4[nH]c(C)cc4c3F)ncnc2cc1OCCCN1CCCC1 [Cediranib] + O=C(CCCCCCC(=O)Nc1ccccc1)NO [Vorinostat] (partner 1 µM)
Procedure, shortened: as §1

## EPLC-272H
[1]; first compound 0.04 µM
  relative viability: 0.303
[1]; first compound 0.4 µM
  relative viability: 0.363
[1]; first compound 4 µM
  relative viability: 0.43
[2]; first compound 0.04 µM
  relative viability: 0.346
[2]; first compound 0.1265 µM
  relative viability: 0.256
[2]; first compound 1.265 µM
  relative viability: 0.339
[2]; first compound 4 µM
  relative viability: 0.27
[3]; first compound 0.1265 µM
  relative viability: 0.561
[3]; first compound 0.4 µM
  relative viability: 0.249
[3]; first compound 1.265 µM
  relative viability: 0.227
[3]; first compound 4 µM
  relative viability: 0.321
[4]; first compound 0.04 µM
  relative viability: 0.38
[4]; first compound 0.1265 µM
  relative viability: 0.448
[4]; first compound 0.4 µM
  relative viability: 0.401
[4]; first compound 1.265 µM
  relative viability: 0.527
[4]; first compound 4 µM
  relative viability: 0.383

## H3255
[1]; first compound 0.04 µM
  relative viability: 0.409
[1]; first compound 0.4 µM
  relative viability: 0.332
[1]; first compound 1.265 µM
  relative viability: 0.302
[1]; first compound 4 µM
  relative viability: 0.36
[2]; first compound 0.04 µM
  relative viability: 0.453
[2]; first compound 0.1265 µM
  relative viability: 0.547
[2]; first compound 0.4 µM
  relative viability: 0.446
[2]; first compound 1.265 µM
  relative viability: 0.486
[2]; first compound 4 µM
  relative viability: 0.453
[3]; first compound 0.1265 µM
  relative viability: 0.765
[3]; first compound 0.4 µM
  relative viability: 0.64
[3]; first compound 1.265 µM
  relative viability: 0.657
[3]; first compound 4 µM
  relative viability: 0.601
[4]; first compound 0.04 µM
  relative viability: 0.921
[4]; first compound 0.4 µM
  relative viability: 0.706
[4]; first compound 4 µM
  relative viability: 0.735

## HARA
[1]; first compound 0.04 µM
  relative viability: 0.193
[1]; first compound 0.4 µM
  relative viability: 0.247
[1]; first compound 1.265 µM
  relative viability: 0.237
[1]; first compound 4 µM
  relative viability: 0.239
[2]; first compound 0.04 µM
  relative viability: 0.2
[2]; first compound 0.1265 µM
  relative viability: 0.247
[2]; first compound 0.4 µM
  relative viability: 0.209
[2]; first compound 1.265 µM
  relative viability: 0.202
[2]; first compound 4 µM
  relative viability: 0.211
[3]; first compound 0.04 µM
  relative viability: 0.802
[3]; first compound 0.1265 µM
  relative viability: 0.544
[3]; first compound 0.4 µM
  relative viability: 0.34
[3]; first compound 1.265 µM
  relative viability: 0.144
[3]; first compound 4 µM
  relative viability: 0.158
[4]; first compound 0.04 µM
  relative viability: 0.549
[4]; first compound 0.1265 µM
  relative viability: 0.315
[4]; first compound 0.4 µM
  relative viability: 0.489
[4]; first compound 1.265 µM
  relative viability: 0.64
[4]; first compound 4 µM
  relative viability: 0.519

## HCC-15
[1]; first compound 0.04 µM
  relative viability: 0.662
[1]; first compound 0.4 µM
  relative viability: 0.585
[1]; first compound 1.265 µM
  relative viability: 0.707
[1]; first compound 4 µM
  relative viability: 0.608
[2]; first compound 0.04 µM
  relative viability: 0.2
[2]; first compound 0.1265 µM
  relative viability: 0.207
[2]; first compound 0.4 µM
  relative viability: 0.179
[2]; first compound 1.265 µM
  relative viability: 0.19
[2]; first compound 4 µM
  relative viability: 0.191
[3]; first compound 0.04 µM
  relative viability: 0.301
[3]; first compound 0.1265 µM
  relative viability: 0.38
[3]; first compound 0.4 µM
  relative viability: 0.267
[3]; first compound 1.265 µM
  relative viability: 0.191
[3]; first compound 4 µM
  relative viability: 0.195
[4]; first compound 0.04 µM
  relative viability: 0.814
[4]; first compound 0.4 µM
  relative viability: 0.821
[4]; first compound 1.265 µM
  relative viability: 0.907
[4]; first compound 4 µM
  relative viability: 0.916
